In US10221129B2, “Inhibitors of human immunodeficiency virus replication” (ViiV HEALTHCARE UK (NO.5) LIMITED, priority 2015, dated 2019):

Tests used:
[1] = tested on: recombinant NL4-3 virus (nef section replaced with Renilla luciferase gene) in MT-2 cells; assay: HIV cell culture assay (antiviral activity, luciferase readout); type: cell-based; settings: Renilla, NL43, MT-2 cells infected for 4-5 days with recombinant NL4-3 Renilla luciferase virus
Experimental: HIV cell culture assay—MT-2 cells, 293T cells and the proviral DNA clone of NL4-3 virus were obtained from the NIH AIDS Research and Reference Reagent Program. MT-2 cells were propagated in RPMI 1640 media supplemented with 10% heat inactivated fetal bovine serum (FBS), 100 jag/ml penicillin G and up to 100 units/mL streptomycin. The 293T cells were propagated in DMEM media supplemented with 10% heat inactivated FBS, 100 μg/mL penicillin G and 100 μg/mL streptomycin. A recombinant NL4-3 proviral clone, in which a section of the nef gene was replaced with the Renilla luciferase gene, was used to make the reference virus used in these studies. The recombinant virus was prepared through transfection of the recombinant NL4-3 proviral clone into 293T cells using Transit-293 Transfection Reagent from Mirus Bio LLC (Madison, Wis.). Supernatant was harvested after 2-3 days and the amount of virus present was titered in MT-2 cells using luciferase enzyme activity as a marker by measuring luciferase enzyme activity. Luciferase was quantitated using the EnduRen Live Cell Substrate from Promega (Madison, Wis.). Antiviral activities of compounds toward the recombinant virus were quantified by measuring luciferase activity in MT-2 cells infected for 4-5 days with the recombinant virus in the presence of serial dilutions of the compound.
(Johnson V A, Byington R T. Infectivity Assay. In Techniques in HIV Research. ed. Aldovini A, Walker B D. 71-76. New York: Stockton Press. 1990).

[2] = Compound cytotoxicity, XTT-based colorimetric assay; type: cell-based; settings: human, uninfected MT2 cells, day 4, XTT
Experimental: Compound cytotoxicity and the corresponding CC50 values were determined using the same protocol as described in the antiviral assay except that uninfected cells were used. Cytotoxicity was assessed on day 4 in uninfected MT2 cells by using a XTT (2,3-bis[2-Methoxy-4-nitro-5-sulfophenyl]-2H-tetrazolium-5-carboxyanilide inner salt)-based colorimetric assay (Sigma-Aldrich, St Louis, Mo.).

| Compound | EC50 [1] | CC50 at 4 days [2] |
| --- | --- | --- |
| CN(C(=O)[C@H](Cc1cc(F)cc(F)c1)NC(=O)NS(=O)(=O)Nc1ccc(C(C)(C)C)cc1)c1ccc2scnc2c1 [ZY-11] | 0.08 µM | 66.9 µM |
| COc1ccc(N(C)C(=O)[C@H](Cc2ccccc2)NC(=O)NS(=O)(=O)N2CCCCC2)cc1 [JB-14] | 0.69 µM | > 100 µM |
| COc1ccc(N(C)C(=O)[C@H](Cc2ccccc2)NC(=O)NS(=O)(=O)N(C)c2cccc(Cl)c2)cc1 [JB-37] | 0.06 µM | > 100 µM |
| COc1ccc(N(C)C(=O)[C@H](Cc2ccccc2)NC(=O)NS(=O)(=O)NCC(=O)N(C)C)cc1 [CA-52] | 0.91 µM | > 100 µM |
| CN(C(=O)[C@H](Cc1cc(F)cc(F)c1)NC(=O)NS(=O)(=O)Nc1cccc(Cl)c1)c1ccc2scnc2c1 [CA-116] | 0.06 µM | 73.2 µM |
| CN(C(=O)[C@H](Cc1cc(F)cc(F)c1)NC(=O)NS(=O)(=O)N1CCc2cccnc21)c1ccc2c(c1)OCCO2 [ZY-24] | 0.06 µM | 53.4 µM |
| COc1ccc(N(C)C(=O)[C@H](Cc2ccccc2)NC(=O)NS(=O)(=O)N2CCc3cccnc32)cc1 [JB-31] | 0.14 µM | > 100 µM |
| COc1ccc(N(C)C(=O)[C@H](Cc2ccccc2)NC(=O)NS(=O)(=O)NCc2cccc(F)c2)cc1 [JB-57] | 6.43 µM | > 100 µM |
| CN(C(=O)[C@H](Cc1cc(F)cc(F)c1)NC(=O)NS(=O)(=O)N1CCc2cccnc21)c1ccc2scnc2c1F [GW-22] | 0.01 µM | > 100 µM |
| Cc1ccc2c(n1)N(S(=O)(=O)NC(=O)N[C@@H](Cc1cc(F)cc(F)c1)C(=O)N(C)c1ccc3scnc3c1)CCC2 [VN-12] | 0.01 µM | > 50 µM |
| CN(C(=O)[C@H](Cc1cc(F)cc(F)c1)NC(=O)NS(=O)(=O)N(C)C)c1ccc2scnc2c1 [VN-16] | 0.03 µM | > 100 µM |
| COc1ccc(N(C)C(=O)[C@H](Cc2cc(F)cc(F)c2)NC(=O)NS(=O)(=O)N2CCc3cccnc32)cc1 [BB-31] | 0.01 µM | > 33.3 µM |
| CN(C(=O)[C@H](Cc1cc(F)cc(F)c1)NC(=O)NS(=O)(=O)N1CCc2cccnc21)c1ccc2cncnc2c1 [BB-30] | 0.26 µM | > 100 µM |
| CC(C)CN(C)S(=O)(=O)NC(=O)N[C@@H](Cc1cc(F)cc(F)c1)C(=O)N(C)c1ccc2scnc2c1 [CA-140] | 0.04 µM | > 100 µM |
| COc1ccc(N(C)C(=O)[C@H](Cc2ccccc2)NC(=O)NS(=O)(=O)NCc2cncn2C)cc1 [JB-55] | 14.8 µM | > 100 µM |
| CN(C(=O)[C@H](Cc1cc(F)cc(F)c1)NC(=O)NS(=O)(=O)N1CCc2cccnc21)c1ccc2c(cnn2C)c1 [GW-8] | 0.1 µM | > 25 µM |
| COc1ccc(N(C)C(=O)[C@H](Cc2ccccc2)NC(=O)NS(=O)(=O)Nc2ccccc2OC)cc1 [JB-16] | 0.17 µM | > 100 µM |
| CC(=O)N1CCN(S(=O)(=O)NC(=O)N[C@@H](Cc2cc(F)cc(F)c2)C(=O)N(C)c2ccc3scnc3c2)CC1 [CA-148] | 10.3 µM | > 100 µM |
| COc1ccc(N(C)C(=O)[C@H](Cc2ccccc2)NC(=O)NS(=O)(=O)N(c2ccccc2)C(C)C)cc1 [CA-25] | 1.01 µM | > 33.3 µM |
| COc1ccc(N(C)C(=O)[C@H](Cc2ccccc2)NC(=O)NS(=O)(=O)Nc2ccc3ccccc3c2)cc1 [CA-5] | 0.18 µM | > 33.3 µM |
| COc1ccc(N(C)C(=O)[C@H](Cc2ccccc2)NC(=O)NS(=O)(=O)Nc2ccc3c(c2)CCC3)cc1 [CA-11] | 0.07 µM | > 100 µM |
| CCN(C)S(=O)(=O)NC(=O)N[C@@H](Cc1cc(F)cc(F)c1)C(=O)N(C)c1ccc2scnc2c1 [CA-154] | 0.03 µM | > 50 µM |

| Compound | EC50 [1] | CC50 at 4 days [2] |
| --- | --- | --- |
| CN(C(=O)[C@H](Cc1cc(F)cc(F)c1)NC(=O)NS(=O)(=O)N1CCC(c2ccccc2)CC1)c1ccc2scnc2c1 [CA-156] | 8.32 µM | 99.2 µM |
| CCOc1ccc(N(CC)C(=O)[C@H](Cc2ccccc2)NC(=O)NS(=O)(=O)N2CCc3c(Cl)cccc32)cc1 [JB-72] | 0.18 µM | > 33.3 µM |
| COc1ccc(N(C)C(=O)[C@H](Cc2ccccc2)NC(=O)NS(=O)(=O)NCC(=O)N2CCCC2)cc1 [CA-51] | 4.59 µM | > 100 µM |
| CCN(c1cccnc1)S(=O)(=O)NC(=O)N[C@@H](Cc1cc(F)cc(F)c1)C(=O)N(C)c1ccc2scnc2c1 [CA-121] | 0.99 µM | 7.3 µM |
| CN(C(=O)[C@H](Cc1cc(F)cc(F)c1)NC(=O)NS(=O)(=O)N1CCc2cccnc21)c1ccc(C(F)F)nc1 [GW-12] | 0.12 µM | > 100 µM |
| COc1ccc(N(C)C(=O)[C@H](Cc2ccccc2)NC(=O)NS(=O)(=O)Nc2ccc(-c3cnco3)cc2)cc1 [CA-38] | 0.25 µM | > 100 µM |
| COc1ccc(N(C)C(=O)[C@H](Cc2ccccc2)NC(=O)NS(=O)(=O)Nc2cccc(C(C)(C)C)c2)cc1 [CA-41] | 0.26 µM | > 33.3 µM |
| CN(C(=O)[C@H](Cc1cc(F)cc(F)c1)NC(=O)NS(=O)(=O)N(C)c1ccccn1)c1ccc2scnc2c1 [CA-113] | 0.14 µM | > 100 µM |
| CN(C(=O)[C@H](Cc1cc(F)cc(F)c1)NC(=O)NS(=O)(=O)NCC1CC1)c1ccc2scnc2c1 [CA-127] | 0.06 µM | > 100 µM |
| CCCN(C)S(=O)(=O)NC(=O)N[C@@H](Cc1cc(F)cc(F)c1)C(=O)N(C)c1ccc2scnc2c1 [CA-141] | 0.04 µM | > 100 µM |
| CN(C(=O)[C@H](Cc1cc(F)cc(F)c1)NC(=O)NS(=O)(=O)N1CCc2cccnc21)c1ccc2c(c1)ncn2C [GW-6] | 0.63 µM | > 25 µM |
| COc1ccccc1NS(=O)(=O)NC(=O)N[C@@H](Cc1ccccc1)C(=O)N(C)c1ccc2ncccc2c1 [JB-12] | 0.17 µM | 57.7 µM |
| CN(C(=O)[C@H](Cc1cc(F)cc(F)c1)NC(=O)NS(=O)(=O)N1CCc2cccnc21)c1ccc(Cl)c(C#N)c1 [BB-23] | 0.28 µM | > 100 µM |
| CN(C(=O)[C@H](Cc1cc(F)cc(F)c1)NC(=O)NS(=O)(=O)Nc1ccccn1)c1ccc2scnc2c1 [CA-114] | 0.1 µM | > 100 µM |
| COc1ccc(N(C)C(=O)[C@H](Cc2ccccc2)NC(=O)NS(=O)(=O)Nc2ccccc2OC(F)(F)F)cc1 [CA-26] | 0.27 µM | > 100 µM |
| COc1ccc(N(C)C(=O)[C@H](Cc2ccccc2)NC(=O)NS(=O)(=O)Nc2ccc(Oc3ccccc3)cc2)cc1 [CA-18] | 0.35 µM | > 33.3 µM |
| CN(C(=O)[C@H](Cc1cc(F)cc(F)c1)NC(=O)NS(=O)(=O)N1CCc2cccnc21)c1ccc(C(F)(F)F)nc1 [GW-9] | 0.18 µM | 35.1 µM |
| Cc1ccc(N(C)C(=O)[C@H](Cc2cc(F)cc(F)c2)NC(=O)NS(=O)(=O)N2CCc3cccnc32)nc1 [GW-4] | 0.22 µM | > 100 µM |
| COc1ccc(N(C)C(=O)[C@H](Cc2ccccc2)NC(=O)NS(=O)(=O)Nc2ccc(S(=O)(=O)N3CCOCC3)cc2)cc1 [CA-44] | 0.62 µM | > 100 µM |
| CN(C(=O)[C@H](Cc1cc(F)cc(F)c1)NC(=O)NS(=O)(=O)NCc1ccccc1)c1ccc2scnc2c1 [CA-126] | 0.52 µM | > 100 µM |
| COc1ccc(N(C)C(=O)[C@H](Cc2ccccc2)NC(=O)NS(=O)(=O)Nc2ccc(C(C)(C)C)cc2)cc1 [CA-20] | 0.04 µM | > 100 µM |
| Cc1nc2c(F)c(N(C)C(=O)[C@H](Cc3cc(F)cc(F)c3)NC(=O)NS(=O)(=O)N3CCc4cccnc43)ccc2s1 [GW-21] | 0.08 µM | > 100 µM |
